Measured values reported in US10822656B2, “Methods and systems for high-throughput toxicity screening of a compound using mahalanobis values” (priority 2017, dated 2020).

Test system: human hepatocytes (cell lines Hu1153, Hu1154, Hu1156, Hu1164)
Experiment: Transcriptomics Mahalanobis distance (MD) toxicity analysis of hepatocytes exposed in-vitro
Assay type: cell-based
Experimental: In one embodiment, four human donors were used to provide four independent cell lines of hepatocytes.
A number of the 192 genes were analyzed using more than one probe and as a result there were 465 different measurements or variables for each experiment. […] PPARα are nuclear receptor proteins of the hepatocyte that regulate gene expression through transcription factors and are essential in the regulation of lipid metabolism.
The MD is calculated as follows (Taguchi & R. Jungulum, 2002): MDj−Dj^2=Z′ijC^−1Zij, and Equation 1: Zij=(Xij−mi)/si Equation 2: Xij=value of the ith characteristic (gene) of the jth observation (experiment) mi=mean of the ith characteristic (gene) si=standard deviation of the ith characteristic (gene) Zij=(z1j, z2j, z3j, . . . , zkj) standardized vector of the standardized values of the Xij Zij′=transpose of the Zij standardized vector C^−1=inverse of the correlation matrix k=total number of gene measurements (e.g. 465 variables).
Data must be collected to identify the reference group from the unstressed cells. […] The MS will be determined by the normal group's mean and standard deviation vector, and the correlation matrix. The reference group will be referred to as the healthy/normal group. This is the most important aspect of the approach, as this MS will be the reference point in n-space. It is used to compare stressed hepatocyte data collected from the perturbed experiments. The measurement scale extends from the centroid of the MS and is typically one unit distance away. The centroid of the MS is the zero point for the measurement scale. The larger the Mahalanobis distance (MD) number the further it is from the centroid of the Mahalanobis space and the higher the risk from exposure. The Mahalanobis distance for each perturbed experiment will be derived from information describing the MS and will be shown below. The MD is a value that describes the relationship between the normal group and the experiment. As hepatocyte cells are stressed by varying concentrations and times of exposure, the same variables that were measured to establish the MS for the normal group will be used to determine a MD number for the experimental data. […] This MD number will be indicative of the experiments generalized distance from the centroid of the healthy/normal group. As concentration and time of exposure increases the MD number for that experiment could increase or decrease, depending on whether the stress of the genes are increasing or decreasing. In general, unstressed hepatocytes tend to look quite similar to the healthy/normal group, while stressed hepatocytes tend to look quite different from the healthy/normal group and will have a higher MD number. In addition, the changes in correlation structure among the stressed hepatocytes strongly affect the MD number. In the case where a hepatocyte's MD number reaches a predetermined high threshold value, genes may start to mutate rapidly. If the MD number becomes similar to those of the healthy/normal group, the risk associated to exposure by a particular compound could be considered a low risk from exposure.
Referring now to FIG. 14, in one embodiment, 20 different experiments were conducted to build the healthy/normal group where the cells were not exposed to chemical, e.g. GW7647. FIG. 14 is an illustration of a snapshot of the database of Normal Unexposed Observation Data where the transcriptomics data of four cell lines—1153, 1154, 1156, and 1164—are provided across five time periods—2, 6, 12, 24, and 72 hours.
This baseline information is used to determine the amount of stress the exposed cells are experiencing from the reference cell pattern of unstressed cells—the healthy/normal group. All the data collected in the 120 different experiments and 465 variables, used the same units of measure consistent with measuring differential gene expression data. […]

## CC(C)(Sc1ccc(CCN(CCCCC2CCCCC2)C(=O)NC2CCCCC2)cc1)C(=O)O [GW7647]
  share of the 192 significant genes showing up-regulation: Over 80%
0.001 μM of concentration
  threshold level (minimum exposure time with significant response): greater than 72 hours
0.01 μM of concentration
  threshold level (minimum exposure time with significant response): greater than 72 hours
1 μM of concentration
  threshold level (minimum exposure time with significant response): 2 h
10 μM of concentration
  threshold level (minimum exposure time with significant response): 2 h
2 hours of exposure
  threshold level (minimum concentration with significant response, p 0.05): 1 µM
6 hours of exposure
  threshold level (minimum concentration with significant response, p 0.05): 0.1 µM
12 hours of exposure
  threshold level (minimum concentration with significant response, p 0.05): 0.1 µM
24 hours of exposure
  threshold level (minimum concentration with significant response, p 0.05): 0.1 µM
72 hours of exposure
  threshold level (minimum concentration with significant response, p 0.05): 0.1 µM
72 hours of exposure, 10 μM, mean of four cell lines
  MD number relative to baseline MD number of 18.05: 8.4 times
Concentration level 0.01 μM
  stress versus liver cells not exposed (significance of MD number): no significant difference in stress
Concentration level 001 μM (so in the source)
  stress versus liver cells not exposed (significance of MD number): no significant difference in stress
Human cell line 1153, similar for 1154, 1156, 1164
  trend of MD number with time and concentration: increases
Mean of four human cell lines, 465 variables
  trend of average MD number with exposure and concentration: increase
Mean of four human cell lines, 72 hours of exposure, 10 μM, 465 variables
  mean MD number: 151.76
Reduced sample set, only 10 genes, mean of four human cell lines
  trend of average MD number with exposure and concentration: increase
Varying times and concentrations
  genes of significance that exhibited a reaction, of 14,000 genes examined by micro-array: 192 genes
